Data reported in patent US12428433B2, “Fluorine-containing heterocyclic derivatives with macrocyclic structure and use thereof” (ScinnoHub Pharmaceutical Co., Ltd, priority 2019, dated 2025).
Read-outs that look alike come from different tables or passages of the source.

Key:
[1] = test system: Ba/F3 LMNA-NTRK1-G595R; experiment: In-vitro cell viability (CTG), NTRK mutant cells; assay type: cell-based; details: Mus musculus, read-out: Ba/F3 LMNA-NTRK1-G595R IC50
Experimental: (§1) Hefei Precedo Biomedical Technology Co., Ltd. was commissioned to complete the testing example, and NTRK mutant cells used were constructed by this company.
(§2) Inhibitory effects of the compound of the present application on growth of three NTRK mutant cells (Ba/F3 LMNA-NTRK1-G667C, Ba/F3 EVT6-NTRK3-G623R and Ba/F3 LMNA-NTRK1-G595R) were measured.
(§3) Cells in logarithmic growth phase were collected and counted by a blood platelet counter, a cell concentration was adjusted to 3 to 6×10^4 cell/mL, 90 μL of cell suspension was added into a 96-well plate, and cells in the 96-well plate were cultured at 37° C. under 5% CO2 and 95% humidity overnight.
(§4) The to-be-tested compound was prepared into a 10 times drug solution in a medium containing 1% DMSO, with […] and the drug solution was diluted by 3 times in sequence to obtain drug solutions with 9 concentrations in total. […] 10 μL of prepared drug solution was added into each well of the 96-well plate in which the cells were inoculated. Then, 90 μL of medium containing 1% DMSO was added to obtain a drug solution with a highest concentration of 1 μM, and the drug solution was diluted by 3 times in sequence to obtain drug solutions with 9 concentrations in total. A final concentration of DMSO in each well was 0.1%, and three multiple wells were provided for the drug of each concentration. The cells in the 96-well plate in which the drug has been added were cultured at 37° C. under 5% CO2 and 95% humidity for 72 hours, and then subjected to CTG analysis.
(§5) An equal volume of CTG solution was added into each well, the 96-well plate was placed at room temperature for 20 minutes to stabilize a luminescence signal, and a luminescence value was read.
(§6) Data was analyzed by GraphPad Prism 7.0 software, and fitted by nonlinear S-curve regression to obtain a dose-effect curve, from which an IC50 value was calculated. Cell survival rate (%)=(Lum to-be-tested drug−Lum medium control)/(Lum cell control−Lum medium control)×100%.

[2] = test system: Ba/F3 EVT6-NTRK3-G623R; experiment: In-vitro cell viability (CTG), NTRK mutant cells; assay type: cell-based; details: for IC50: Mus musculus, read-out: Ba/F3 EVT6-NTRK3-G623R IC50
Experimental: as §1, §2, §3, §4, §5, §6

[3] = test system: Ba/F3 LMNA-NTRK1-G667C; experiment: In-vitro cell viability (CTG), NTRK mutant cells; assay type: cell-based; details: Mus musculus, read-out: Ba/F3 LMNA-NTRK1-G667C IC50
Experimental: as §1, §2, §3, §4, §5, §6

[4] = target: TRKC(G623R) (Homo sapiens (Human), UniProt Q16288, G623R); experiment: Kinase inhibitory activity (Caliper mobility shift), TRKC(G623R); assay type: biochemical
Sequence of TRKC(G623R) (Q16288 32-839 G623R): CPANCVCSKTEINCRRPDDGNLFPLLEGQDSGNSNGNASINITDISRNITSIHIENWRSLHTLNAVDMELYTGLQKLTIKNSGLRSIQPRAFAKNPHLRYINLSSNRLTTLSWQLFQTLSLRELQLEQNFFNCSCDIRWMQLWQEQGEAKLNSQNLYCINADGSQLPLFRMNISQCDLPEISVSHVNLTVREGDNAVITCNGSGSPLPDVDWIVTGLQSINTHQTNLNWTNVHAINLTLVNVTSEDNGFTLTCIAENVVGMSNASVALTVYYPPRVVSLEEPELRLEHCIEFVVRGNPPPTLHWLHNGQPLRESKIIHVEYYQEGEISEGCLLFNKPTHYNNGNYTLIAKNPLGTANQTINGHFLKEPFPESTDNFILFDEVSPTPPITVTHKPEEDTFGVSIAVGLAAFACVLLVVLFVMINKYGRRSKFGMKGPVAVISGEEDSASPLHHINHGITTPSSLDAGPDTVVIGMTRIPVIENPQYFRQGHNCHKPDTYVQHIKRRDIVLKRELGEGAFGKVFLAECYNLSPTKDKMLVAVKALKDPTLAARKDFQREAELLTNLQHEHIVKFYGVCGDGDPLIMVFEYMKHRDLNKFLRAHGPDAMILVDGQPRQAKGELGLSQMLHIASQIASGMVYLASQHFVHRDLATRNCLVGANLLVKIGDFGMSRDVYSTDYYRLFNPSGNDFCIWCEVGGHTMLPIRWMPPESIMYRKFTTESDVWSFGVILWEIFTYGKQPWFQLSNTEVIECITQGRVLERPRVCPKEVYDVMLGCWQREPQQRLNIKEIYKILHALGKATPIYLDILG
Experimental: Sundia Meditech (Shanghai) Co., Ltd. was commissioned to complete the testing example.
3.1 A tested compound was accurately weighed and dissolved in 100% DMSO to prepare into a 10 mM solution.
250 nL of the compound of 100 times final concentration was transferred to a reaction plate OptiPlate-384F by a dispenser Echo 550.
3.2.3 A kinase solution of 2.5 times final concentration was prepared with 1×kinase buffer.
3.2.4 10 μL of kinase solution of 2.5 times final concentration was added into a compound well and a positive control well respectively; and 10 μL of 1×kinase buffer was added into a negative control well.
3.2.5 The reaction plate was shaken and mixed evenly, and then incubated at room temperature for 10 minutes.
3.2.6 Mixed solutions of ATP and kinase substrate 22 of 5 times and 3 times final concentrations were prepared with 1×kinase buffer.
3.2.7 15 μL of mixed solution of ATP and substrate of 5 times or 3 times final concentration was added.
3.2.8 The 384-well plate was centrifuged at 1,000 rpm for 30 seconds, shaken and mixed evenly, and then incubated at room temperature for corresponding time.
3.2.9 The kinase reaction was terminated.
3.2.10 A conversion rate was read by the microplate reader Caliper EZ Reader.
Calculation Formula Inhibition rate %=(conversion rate % maximum−conversion rate % sample)/(conversion rate % maximum−conversion rate % minimum)×100
wherein the conversion rate % sample was: a reading number of a conversion rate of a sample; the conversion rate % minimum was: an average value of the negative control well, which represented a reading number of a conversion rate without an enzyme activity well; and the conversion rate % maximum was: an average value of a ratio of the positive control well, which represented a reading number of a conversion rate without a compound inhibition well.
Fitting of dose-effect curve: a log value of concentration was used as an X axis, a percentage inhibition rate was used as a Y axis, and the dose-effect curve was fitted by a log (inhibitor) vs. response-variable slope of the analysis software GraphPad Prism 5 (four-parameter model fitting), so as to obtain an IC50 value of each compound on enzyme activity.

[5] = Stability test in liver microsomes, human; assay type: in vitro ADME; details: for half-life at 1 μM: 0.5 mg/mL
Experimental: A stability of the compound of the present application in liver microsomes of human, rat and mouse was measured.
3.1 A buffer and a liver microsome were prepared into an incubation solution according to the following table:
3.2 The following two experiments were carried out respectively: a) incubation system added with coenzyme factor NADPH: 25 μL of NADPH (10 mM) was added into an incubation solution (mainly comprising a liver microsome and a phosphate buffer), so that final concentrations of the liver microsome and the NADPH were 0.5 mg/mL and […] respectively; and b) incubation system without coenzyme factor NADPH: 25 μL of phosphate buffer (100 mM) was added into the incubation solution, so that the final concentration of the liver microsome was 0.5 mg/mL. The incubation systems above were preheated at 37° C. for 10 minutes respectively.
3.3 2.5 μL of positive control compound or a tested compound solution (100 μM) was added into the incubation systems described in “step 3.2” above respectively for reaction, and the positive control compound was verapamil (purchased from Sigma), so that a final concentration of the tested compound of the present application or the positive control compound was 1 μM. The incubation solution added with the compound was incubated in water at 37° C. in batches.
3.4 30 μL of aliquot was taken from a reaction solution after 0.5 minute, 5 minutes, 15 minutes, 30 minutes and 45 minutes respectively, and the reaction was terminated by adding 5 times volume of cold acetonitrile containing 200 nM caffeine and 100 nM tolbutamide. The aliquot was centrifuged at a gravity acceleration of 3,220 g for 40 minutes, and 100 μL of supernatant was mixed with 100 μL of ultrapure water, and then used for LC-MS/MS analysis.
A peak area was determined by an extracted ion chromatogram. A slope value k was determined by linear regression of a remaining percentage of a parent drug relative to […] an incubation time curve.
In-vitro half-life periods (t1/2) were respectively calculated and determined according to the slope value, and an average value of the in-vitro half-life periods was converted into an in-vitro intrinsic clearance rate (CLint, represented by μL/min/mg protein).

IC50 ([1]; BaF3, 72 hours, CTG) [nM]	IC50 ([2]; BaF3, 72 hours, CTG) [nM]	IC50 ([3]; BaF3, 72 hours, CTG) [nM]	IC50 [4] [nM]	microsomal CLint at 1 μM [5] [µL/min/mg]	half-life at 1 μM [5] [min]	% Remaining(45 min) [5] [%]	SMILES	IC50 ([1]; BaF3, 72 h) [nM]	IC50 ([2]; BaF3, 72 h) [nM]	IC50 ([3]; BaF3, 72 h) [nM]	inhibitory activity higher than that of the positive control compound 2 ([2]; Ba/F3 EVT6-NTRK3-G623R, data of Table 2) [times]
1.8	18	1.8	1.7	92.3	15	12.43	O=C1N[C@H]2C[C@H](C2)Oc2ncc(F)cc2[C@H]2CCCN2c2ccn3ncc1c3n2 (stereo in doubt) [Positive control 1, reference compound]				
4.5	25	3.2	1.5	11.1	128	69.89	C[C@H]1Nc2nc3c(cnn3cc2F)C(=O)N[C@H]2C[C@H](C2)Oc2ncc(F)cc21 [Example 3, (3^1S,3^3S,6^3E,6^4E,8R)-1^5,6^6-difluoro-8-methyl-2-oxo-4,7-diaza-6(3,5)-pyrazolo[1,5-a]pyrimidine-1(2,3)-pyridine-3(1,3)-cyclobutylcyclooctane-5-one]				4
13	107	6.5	1.4	16.4	84.8	67.39	C[C@H]1Nc2ccn3ncc(c3n2)C(=O)N[C@H]2C[C@H](C2)Oc2ncc(F)cc21 [Positive control 2, reference compound]				

SMILES	IC50 ([1]; BaF3, 72 hours, CTG) [nM]	IC50 ([2]; BaF3, 72 hours, CTG) [nM]	IC50 ([3]; BaF3, 72 hours, CTG) [nM]	IC50 [4] [nM]	microsomal CLint at 1 μM [5] [µL/min/mg]	half-life at 1 μM [5] [min]	% Remaining(45 min) [5] [%]	IC50 ([1]; BaF3, 72 h) [nM]	IC50 ([2]; BaF3, 72 h) [nM]	IC50 ([3]; BaF3, 72 h) [nM]	inhibitory activity higher than that of the positive control compound 2 ([2]; Ba/F3 EVT6-NTRK3-G623R, data of Table 2) [times]
O=C1N[C@H]2C[C@H](C2)Oc2ncc(F)cc2[C@H]2CCCN2c2nc3c1cnn3cc2F [Example 2, ((1^3E,1^4E,2^2R,5^1S,5^3S)-1^6,3^5-difluoro-4-oxa-6-aza-1(5,3)-pyrazolo[1,5-a]pyrimidine-3(3,2)-pyridine-2(1,2)-pyrrolidine-5(1,3)-cyclobutancycloheptan-7-one]				1.8	86	16.1	14.38	2.3	14	3	
